{
  "source": "patent US20150105252A1",
  "about": "“SUBSTITUTED PYRAZOLES AS HERBICIDES” (E I DU PONT DE NEMOURS AND COMPANY, priority 2013, published 2015)",
  "key": {"blackgrass": {"tested_on": "blackgrass", "assay": "Test C postemergence", "assay_type": "in vivo, Alopecurus myosuroides", "description": "(§1) Seeds of plant species selected from blackgrass (Alopecurus myosuroides), ryegrass, Italian (Italian ryegrass, Lolium multiflorum), wheat (winter wheat, Triticum aestivum), galium (catchweed bedstraw, Galium aparine), corn (Zea mays), crabgrass, large (large crabgrass, Digitaria sanguinalis), foxtail, giant (giant foxtail, Setaria faberii), johnsongrass (Sorghum halepense), lambsquarters (Chenopodium album), morningglory (Ipomoea coccinea), nutsedge, yellow (yellow nutsedge, Cyperus esculentus), pigweed (redroot pigweed, Amaranthus retroflexus), ragweed (common ragweed, Ambrosia elation), soybean (Glycine max), barnyardgrass (Echinochloa crus-galli), oilseed rape (Brassica napus), waterhemp (common waterhemp, Amaranthus rudis), oat, wild (wild oat, Avena fatua), kochia (Kochia scoparia), Surinam grass (Brachiaria decumbens), foxtail, green (green foxtail, Setaria viridis), goosegrass (Eleusine indica), bromegrass, downy (downy bromegrass, Bromus tectorum), nightshade (eastern black nightshade, Solanum ptycanthum), cocklebur (common cocklebur, Xanthium strumarium), cupgrass, woolly (woolly cupgrass, Eriochloa villosa), bermudagrass (Cynodon dactylon), sunflower, (common oilseed sunflower, Helianthus annuus), Russian thistle (Salsola kali), and velvetleaf (Abutilon theophrasti) were planted into a blend of loam soil and sand and treated preemergence with test chemicals formulated in a non-phytotoxic solvent mixture which included a surfactant.\n(§2) At the same time, plants selected from these crop and weed species and also chickweed (common chickweed, Stellaria media), canarygrass (littleseed canarygrass, Phalaris minor), and deadnettle (henbit deadnettle, Lamium amplexicaule), were planted in pots containing Redi-Earth® planting medium (Scotts Company, 14111 Scottslawn Road, Marysville, Ohio 43041) comprising spaghnum peat moss, vermiculite, wetting agent and starter nutrients and treated with postemergence applications of test chemicals formulated in the same manner. Plants ranged in height from 2 to 18 cm (1- to 4-leaf stage) for postemergence treatments. Treated plants and controls were maintained in a greenhouse for 13 to 15 days, after which time all species were compared to controls and visually evaluated. Plant response ratings, summarized in Table C, are based on a scale of 0 to 100 where 0 is no effect and 100 is complete control. A dash (-) response means no test result."}, "ryegrass, Italian": {"tested_on": "ryegrass, Italian", "assay": "Test C postemergence", "assay_type": "in vivo, Lolium multiflorum", "description": "as §1, §2"}, "galium": {"tested_on": "galium", "assay": "Test C postemergence", "assay_type": "in vivo, Galium aparine", "conditions": "for Plant response rating, Galium: postemergence", "description": "as §1, §2"}, "crabgrass, large": {"tested_on": "crabgrass, large", "assay": "Test C postemergence", "assay_type": "in vivo, Digitaria sanguinalis", "description": "as §1, §2"}, "foxtail, giant": {"tested_on": "foxtail, giant", "assay": "Test C postemergence", "assay_type": "in vivo, Setaria faberii", "description": "as §1, §2"}, "lambsquarters [1]": {"tested_on": "lambsquarters", "assay": "Test C postemergence", "assay_type": "in vivo, Chenopodium album", "description": "as §1, §2"}, "morningglory": {"tested_on": "morningglory", "assay": "Test C postemergence", "assay_type": "in vivo, Ipomoea coccinea", "description": "as §1, §2"}, "nutsedge, yellow": {"tested_on": "nutsedge, yellow", "assay": "Test C postemergence", "assay_type": "in vivo, Cyperus esculentus", "description": "as §1, §2"}, "barnyardgrass": {"tested_on": "barnyardgrass", "assay": "Test C postemergence", "assay_type": "in vivo, Echinochloa crus-galli", "description": "as §1, §2"}, "oilseed rape": {"tested_on": "oilseed rape", "assay": "Test C postemergence", "assay_type": "in vivo, Brassica napus", "description": "as §1, §2"}, "waterhemp": {"tested_on": "waterhemp", "assay": "Test C postemergence", "assay_type": "in vivo, Amaranthus rudis", "description": "as §1, §2"}, "oat, wild": {"tested_on": "oat, wild", "assay": "Test C postemergence", "assay_type": "in vivo, Avena fatua", "description": "as §1, §2"}, "kochia": {"tested_on": "kochia", "assay": "Test C postemergence", "assay_type": "in vivo, Kochia scoparia", "description": "as §1, §2"}, "velvetleaf": {"tested_on": "velvetleaf", "assay": "Test C postemergence", "assay_type": "in vivo, Abutilon theophrasti", "description": "as §1, §2"}, "lambsquarters [2]": {"tested_on": "lambsquarters", "assay": "Test C preemergence", "assay_type": "in vivo, Chenopodium album", "conditions": "for Lambsquarters plant response rating: preemergence", "description": "as §1, §2"}, "[3]": {"conditions": "Postemergence, 31 g ai/ha, visually evaluated after 13 to 15 days"}, "[4]": {"conditions": "postemergence, 62 g ai/ha, scale 0 to 100"}, "[5]": {"conditions": "postemergence, 250 g ai/ha, scale 0 to 100 (0 no effect, 100 complete control)"}, "[6]": {"conditions": "postemergence, 125 g ai/ha, scale 0 to 100, 0 no effect, 100 complete control"}},
  "data": [
    {"smiles": "CCc1cc(C(=O)NCC(F)(F)F)nn1Cc1ccnc(C(F)(F)F)c1", "note": "[Compound 78, 5-ethyl-N-(2,2,2-trifluoroethyl)-1-[[(2-trifluoromethyl)-4-pyridinyl]methyl]-1H-pyrazole-3-carboxamide]", "values": [
      {"measurement": "Plant response rating (scale of 0 to 100 where 0 is no effect and 100 is complete control), Blackgrass", "setting": "blackgrass; [3]", "result": 5},
      {"measurement": "Blackgrass plant response rating", "setting": "blackgrass; [4]", "result": 5},
      {"measurement": "Plant response rating, Blackgrass", "setting": "blackgrass; [5]", "result": 50},
      {"measurement": "Plant response rating, Blackgrass", "setting": "blackgrass; [6]", "result": 10},
      {"measurement": "Plant response rating (scale of 0 to 100 where 0 is no effect and 100 is complete control), Ryegrass, Italian", "setting": "ryegrass, Italian; [3]", "result": 5},
      {"measurement": "Ryegrass, Italian plant response rating", "setting": "ryegrass, Italian; [4]", "result": 5},
      {"measurement": "Plant response rating, Ryegrass, Italian", "setting": "ryegrass, Italian; [5]", "result": 35},
      {"measurement": "Plant response rating, Ryegrass, Italian", "setting": "ryegrass, Italian; [6]", "result": 5},
      {"measurement": "Plant response rating (scale of 0 to 100 where 0 is no effect and 100 is complete control), Galium", "setting": "galium; [3]", "result": 80},
      {"measurement": "Plant response rating, Galium", "setting": "galium; 250 g ai/ha, scale 0 to 100 (0 no effect, 100 complete control)", "result": 80},
      {"measurement": "Plant response rating, Galium", "setting": "galium; 125 g ai/ha, scale 0 to 100, 0 no effect, 100 complete control", "result": 80},
      {"measurement": "Plant response rating (scale of 0 to 100 where 0 is no effect and 100 is complete control), Crabgrass, Large", "setting": "crabgrass, large; [3]", "result": 15},
      {"measurement": "Crabgrass, Large plant response rating", "setting": "crabgrass, large; [4]", "result": 25},
      {"measurement": "Plant response rating, Crabgrass, Large", "setting": "crabgrass, large; [5]", "result": 90},
      {"measurement": "Plant response rating, Crabgrass, Large", "setting": "crabgrass, large; [6]", "result": 80},
      {"measurement": "Plant response rating (scale of 0 to 100 where 0 is no effect and 100 is complete control), Foxtail, Giant", "setting": "foxtail, giant; [3]", "result": 15},
      {"measurement": "Foxtail, Giant plant response rating", "setting": "foxtail, giant; [4]", "result": 20},
      {"measurement": "Plant response rating, Foxtail, Giant", "setting": "foxtail, giant; [5]", "result": 95},
      {"measurement": "Plant response rating, Foxtail, Giant", "setting": "foxtail, giant; [6]", "result": 50},
      {"measurement": "Plant response rating (scale of 0 to 100 where 0 is no effect and 100 is complete control), Lambsquarters", "setting": "lambsquarters [1]; [3]", "result": 60},
      {"measurement": "Lambsquarters plant response rating", "setting": "lambsquarters [1]; [4]", "result": 75},
      {"measurement": "Plant response rating, Lambsquarters", "setting": "lambsquarters [1]; [5]", "result": 98},
      {"measurement": "Plant response rating, Lambsquarters", "setting": "lambsquarters [1]; [6]", "result": 95},
      {"measurement": "Plant response rating (scale of 0 to 100 where 0 is no effect and 100 is complete control), Morningglory", "setting": "morningglory; [3]", "result": 70},
      {"measurement": "Morningglory plant response rating", "setting": "morningglory; [4]", "result": 80},
      {"measurement": "Plant response rating, Morningglory", "setting": "morningglory; [5]", "result": 100},
      {"measurement": "Plant response rating, Morningglory", "setting": "morningglory; [6]", "result": 90},
      {"measurement": "Plant response rating (scale of 0 to 100 where 0 is no effect and 100 is complete control), Nutsedge, Yellow", "setting": "nutsedge, yellow; [3]", "result": 5},
      {"measurement": "Nutsedge, Yellow plant response rating", "setting": "nutsedge, yellow; [4]", "result": 5},
      {"measurement": "Plant response rating, Nutsedge, Yellow", "setting": "nutsedge, yellow; [5]", "result": 15},
      {"measurement": "Plant response rating, Nutsedge, Yellow", "setting": "nutsedge, yellow; [6]", "result": 10},
      {"measurement": "Plant response rating (scale of 0 to 100 where 0 is no effect and 100 is complete control), Barnyardgrass", "setting": "barnyardgrass; [3]", "result": 5},
      {"measurement": "Barnyardgrass plant response rating", "setting": "barnyardgrass; [4]", "result": 15},
      {"measurement": "Plant response rating, Barnyardgrass", "setting": "barnyardgrass; [5]", "result": 80},
      {"measurement": "Plant response rating, Barnyardgrass", "setting": "barnyardgrass; [6]", "result": 15},
      {"measurement": "Plant response rating (scale of 0 to 100 where 0 is no effect and 100 is complete control), Oilseed Rape", "setting": "oilseed rape; [3]", "result": 45},
      {"measurement": "Oilseed Rape plant response rating", "setting": "oilseed rape; [4]", "result": 45},
      {"measurement": "Plant response rating, Oilseed Rape", "setting": "oilseed rape; [5]", "result": 55},
      {"measurement": "Plant response rating, Oilseed Rape", "setting": "oilseed rape; [6]", "result": 50},
      {"measurement": "Plant response rating (scale of 0 to 100 where 0 is no effect and 100 is complete control), Waterhemp", "setting": "waterhemp; [3]", "result": 50},
      {"measurement": "Waterhemp plant response rating", "setting": "waterhemp; [4]", "result": 70},
      {"measurement": "Plant response rating, Waterhemp", "setting": "waterhemp; [5]", "result": 95},
      {"measurement": "Plant response rating, Waterhemp", "setting": "waterhemp; [6]", "result": 80},
      {"measurement": "Plant response rating (scale of 0 to 100 where 0 is no effect and 100 is complete control), Oat, Wild", "setting": "oat, wild; [3]", "result": 5},
      {"measurement": "Oat, Wild plant response rating", "setting": "oat, wild; [4]", "result": 5},
      {"measurement": "Plant response rating, Oat, Wild", "setting": "oat, wild; [5]", "result": 30},
      {"measurement": "Plant response rating, Oat, Wild", "setting": "oat, wild; [6]", "result": 10},
      {"measurement": "Plant response rating (scale of 0 to 100 where 0 is no effect and 100 is complete control), Kochia", "setting": "kochia; [3]", "result": 85},
      {"measurement": "Kochia plant response rating", "setting": "kochia; [4]", "result": 90},
      {"measurement": "Plant response rating, Kochia", "setting": "kochia; [5]", "result": 90},
      {"measurement": "Plant response rating, Kochia", "setting": "kochia; [6]", "result": 90},
      {"measurement": "Plant response rating (scale of 0 to 100 where 0 is no effect and 100 is complete control), Velvetleaf", "setting": "velvetleaf; [3]", "result": 15},
      {"measurement": "Velvetleaf plant response rating", "setting": "velvetleaf; [4]", "result": 20},
      {"measurement": "Plant response rating, Velvetleaf", "setting": "velvetleaf; [5]", "result": 75},
      {"measurement": "Plant response rating, Velvetleaf", "setting": "velvetleaf; [6]", "result": 50}
    ]},
    {"smiles": "CCONC(=O)c1cc(CC)n(Cc2cc(C(F)(F)F)no2)n1", "note": "[Compound 125]", "values": [
      {"measurement": "Plant response rating (scale of 0 to 100), Lambsquarters", "setting": "lambsquarters [2]; Preemergence, 250 g ai/ha", "result": 100},
      {"measurement": "Lambsquarters plant response rating", "setting": "lambsquarters [2]; 31 g ai/ha, visual rating, scale 0 to 100 (0 no effect, 100 complete control), 13 to 15 days", "result": 15},
      {"measurement": "Lambsquarters plant response rating", "setting": "lambsquarters [2]; 62 g ai/ha, scale 0 to 100 (0 no effect, 100 complete control), 13 to 15 days", "result": 35},
      {"measurement": "Lambsquarters plant response rating", "setting": "lambsquarters [2]; 125 g ai/ha, scale 0 to 100, 0 is no effect, 100 is complete control", "result": 75}
    ]}
  ]
}
